Laboratory results taken from patent publication US3963707A, “Novel N-nitroso compounds, compositions containing such compounds, processes for their preparation and methods of treatment therewith, and novel intermediates” (Aktiebolaget Leo, priority 1973, dated 1976).

Tested on: Hepatoma AH 130
Assay: in vivo
Parameters: species or system SPF Wistar rats
Settings: additional compounds, result in words
Description: The high activity against tumours is further illustrated in these experiments by comparisons with known antitumour agents used in the therapy. The therapeutic indexes (T.I.), i.e. the ratios LD50/ED50, are in all comparisons much more favourable with the compounds of the present invention.
LD50 is the dose that caused a 50 percent lethality of the animals, ED50 is the dose that caused a 50 percent reduction of tumour size.
The experimental design and the interpretation of the results have been in accordance with the standards set by the CCNSC (Cancer Chemotherapy Reports, January 1959 and December 1962), and by the DR&D (Cancer Chemotherapy Reports, September 1972, Vol. 3, No. 2).
The way of administration is by the intraperitoneal route (i.p.) in each case.
Experimental animals: SPF Wistar rats.
Tumour implant: 5 × 10^6 tumour cells i.p.
Therapy: One injection i.p. on the day following implantation.
Termination: The animals are killed on the 8th day.
Evaluation: Weights of tumours of test animals compared with those of control animals.

CC1CC2(C)C(CCC3C2CCC2(C)C(OC(=O)N(CCCl)N=O)CCC32)CC1=O (stereo not drawn) [2α-methyl-dihydrotestosterone-17β-N-(2-chloroethyl)-N-nitroso carbamate]
anti-tumor activity: exhibit anti-tumor activity

CC1=C2CC[C@H]3[C@@H]4CC[C@H](OC(=O)N(CCCl)N=O)[C@@]4(C)CC[C@@H]3[C@@]2(C)CCC1=O [4-methyl-testosterone-17β-N-(2-chloroethyl)-N-nitroso carbamate]
anti-tumor activity: exhibit anti-tumor activity

CC(=O)[C@@]1(OC(=O)N(CCCl)N=O)CC[C@H]2[C@@H]3C=C(Cl)C4=CC(=O)CC[C@]4(C)[C@H]3CC[C@@]21C [6-chloro-6-dehydro-17α-hydroxyprogesterone,17α-N-(2-chloroethyl)-N-nitroso carbamate]
anti-tumor activity: exhibit anti-tumor activity

CC(=O)[C@@]1(O)CC[C@H]2[C@@H]3C=C(Cl)C4=C[C@@H](OC(=O)N(CCCl)N=O)CC[C@]4(C)[C@H]3CC[C@@]21C [6-chloro-pregna-4,6-diene-3β,17α-diol-20-one,3β-N-(2-chloroethyl)-N-nitroso carbamate]
anti-tumor activity: exhibit anti-tumor activity

CC(=O)[C@@]1(OC(=O)N(CCCl)N=O)CC[C@H]2[C@@H]3C[C@H](C)C4=CC(=O)CC[C@]4(C)[C@H]3CC[C@@]21C [6α-methyl-17α-hydroxy-progesterone,17α-N-(2-chloroethyl)-N-nitroso carbamate]
anti-tumor activity: exhibit anti-tumor activity

C[C@H]1C[C@H]2[C@@H]3CC[C@H](OC(=O)N(CCCl)N=O)[C@@]3(C)CC[C@@H]2[C@@]2(C)CCC(=O)C=C12 [6α-methyltestosterone-17β-N-(2-chloroethyl)-N-nitroso carbamate]
anti-tumor activity: exhibit anti-tumor activity

C[C@@H]1CC2=CC(=O)CC[C@]2(C)[C@H]2CC[C@@]3(C)[C@@H](CC[C@]3(C)OC(=O)N(CCCl)N=O)[C@H]12 [7α,17α-dimethyltestosterone-17β-N-(2-chloroethyl)-N-nitroso carbamate]
anti-tumor activity: exhibit anti-tumor activity

C[C@]12CCC(=O)C=C1CC[C@H]1[C@@H]3CC[C@](C)(OC(=O)N(CCCl)N=O)[C@@]3(C)C[C@H](O)[C@@]12F [9α-fluoro-11β-hydroxy-17α-methyltestosterone-17β-N-(2-chloroethyl)-N-nitroso carbamate]
anti-tumor activity: exhibit anti-tumor activity

C=CC[C@]1(OC(=O)N(CCCl)N=O)CC[C@H]2[C@@H]3CCC4=CCCC[C@@H]4[C@H]3CC[C@@]21C [17α-allyl-estr-4-en-17β-ol,17β-N-(2-chloroethyl)-N-nitroso carbamate]
anti-tumor activity: exhibit anti-tumor activity

C#C[C@]1(OC(=O)N(CCCl)N=O)CC[C@H]2[C@@H]3CCC4=CC(=O)CC[C@@H]4[C@H]3CC[C@@]21CC [17α-ethynyl-18-methyl-19-nortestosterone-17β-N-(2-chloroethyl)-N-nitroso carbamate]
anti-tumor activity: exhibit anti-tumor activity

C[C@]12CCC(=O)C=C1CC[C@@H]1[C@@H]2CC[C@@]2(C)[C@H]1CC[C@]2(C)OC(=O)N(CCCl)N=O [17α-methyltestosterone-17β-N-(2-chloroethyl)-N-nitroso carbamate]
anti-tumor activity: exhibit anti-tumor activity

C[C@]12CC[C@H]3[C@@H](CC=C4C[C@@H](OC(=O)N(CCCl)N=O)CC[C@@]43C)[C@@H]1CC[C@@H]2OP(=O)(O)O [androstenediol-3β-/N-(2-chloroethyl)-N-nitroso carbamate/-17β-dihydrogen phosphate]
anti-tumor activity: exhibit anti-tumor activity

CCOP(=O)(O)O[C@H]1CC[C@H]2[C@@H]3CC=C4C[C@@H](OC(=O)N(CCCl)N=O)CC[C@]4(C)[C@H]3CC[C@]12C [androstenediol-3β-/N-(2-chloroethyl)-N-nitroso carbamate/-17β-ethyl hydrogen phosphate]
anti-tumor activity: exhibit anti-tumor activity

C[C@]12CC[C@H]3[C@@H](CC=C4C[C@@H](OC(=O)N(CCCl)N=O)CC[C@@]43C)[C@@H]1CC[C@@H]2OP(=O)(O)Oc1ccccc1 [androstenediol-3β-/N-(2-chloroethyl)-N-nitroso carbamate/-17β-phenyl hydrogen phosphate]
anti-tumor activity: exhibit anti-tumor activity

C[C@]12CC[C@H]3[C@@H](CC=C4C[C@@H](OC(=O)N(CCCl)N=O)CC[C@@]43C)[C@@H]1CC[C@@H]2OS(=O)(=O)O [androstenediol-3β-/N-(2-chloroethyl)-N-nitroso carbamate/-17β-sodium sulphate]
anti-tumor activity: exhibit anti-tumor activity

CN(C(=O)O[C@H]1CC[C@@]2(C)C(=CC[C@H]3[C@@H]4CC[C@H](OP(=O)(O)O)[C@@]4(C)CC[C@@H]32)C1)C(=O)N(CCCl)N=O [androstenediol-3β-/N^2-methyl-N^4-(2-chloroethyl)-N^4 nitroso allophanate/-17β-dihydrogen phosphate]
anti-tumor activity: exhibit anti-tumor activity

C[C@]12CC[C@H]3[C@@H](CC=C4C[C@@H](OC(=O)N(CCCl)N=O)CC[C@@]43C)[C@@H]1CC[C@@H]2OC(=O)c1ccccc1 [androstenediol-17β-benzoate-3β-N-(2-chloroethyl)-N-nitroso carbamate]
anti-tumor activity: exhibit anti-tumor activity

C[C@]12CC[C@H]3[C@@H](CC=C4C[C@@H](OC(=O)N(CCCl)N=O)CC[C@@]43C)[C@@H]1CC[C@@H]2OC(=O)CCC(=O)O [androstenediol-17β-hemisuccinate-3β-N-(2-chloroethyl)-N-nitroso carbamate]
anti-tumor activity: exhibit anti-tumor activity

CO[C@H]1CC[C@H]2[C@@H]3CC=C4C[C@@H](OC(=O)N(CCCl)N=O)CC[C@]4(C)[C@H]3CC[C@]12C [androstenediol-17β-methylether-3β-N-(2-chloroethyl)-N-nitroso carbamate]
anti-tumor activity: exhibit anti-tumor activity

CCCCCCOc1ccc(CCC(=O)O[C@H]2CC[C@H]3[C@@H]4CC=C5C[C@@H](OC(=O)N(CCCl)N=O)CC[C@]5(C)[C@H]4CC[C@]23C)cc1 [androstenediol-17β-p-hexoxyphenylpropionate-3β-N-(2 -chloroethyl)-N-nitroso carbamate]
anti-tumor activity: exhibit anti-tumor activity

CC(C)CCC[C@@H](C)[C@H]1CC[C@H]2[C@@H]3CC=C4C[C@@H](OC(=O)N(CCCl)C(=O)N(CCCl)N=O)CC[C@]4(C)[C@H]3CC[C@]12C [cholesterol-3β-/N^2,N^4-bis (2-chloroethyl)-N^4-nitroso allophanate/]
anti-tumor activity: exhibit anti-tumor activity

CC(C)CCC[C@@H](C)[C@H]1CC[C@H]2[C@@H]3CC=C4C[C@@H](OC(=O)N(C)C(=O)N(CCCl)N=O)CC[C@]4(C)[C@H]3CC[C@]12C [cholesterol-3β-/N^2-methyl-N^4-(2-chloroethyl)-N^4-nitroso allophanate/]
anti-tumor activity: exhibit anti-tumor activity

CC(C)CCC[C@@H](C)[C@H]1CC[C@H]2[C@@H]3CC=C4C[C@@H](OC(=O)N(C(=O)N(CCCl)N=O)c5ccccc5)CC[C@]4(C)[C@H]3CC[C@]12C [cholesterol-3β-/N^2-phenyl-N^4-(2-chloroethyl)-N^4-nitroso allophanate/]
anti-tumor activity: exhibit anti-tumor activity

CC(C)CCC[C@@H](C)[C@H]1CC[C@H]2[C@@H]3CC=C4C[C@@H](OC(=O)NC(=O)N(CCCl)N=O)CC[C@]4(C)[C@H]3CC[C@]12C [cholesterol-3β-/N^4-(2-chloroethyl)-N^4-nitroso allophanate/]
anti-tumor activity: exhibit anti-tumor activity

CC(C)CCC[C@@H](C)[C@H]1CC[C@H]2[C@@H]3CC=C4C[C@@H](OC(=O)N(CCF)N=O)CC[C@]4(C)[C@H]3CC[C@]12C [cholesterol-3β-N-(2-fluoroethyl)-N-nitroso carbamate]
anti-tumor activity: exhibit anti-tumor activity

CC(=O)OCC(=O)[C@H]1CC[C@H]2[C@@H]3CCC4=CC(=O)CC[C@]4(C)[C@H]3[C@@H](OC(=O)N(CCCl)N=O)C[C@]12C [corticosterone-21-acetate-11β-N-(2-chloroethyl)-N-nitroso carbamate]
anti-tumor activity: exhibit anti-tumor activity

Cc1ccc(N(C(=O)O[C@H]2CC[C@@]3(C)C(=CC[C@@H]4[C@@H]3CC[C@]3(C)C(=O)CC[C@@H]43)C2)C(=O)N(CCCl)N=O)cc1C [dehydroepiandrosterone-3β-/N^2-(3,4-dimethylphenyl)-N^4-(2-chloroethyl)-N^4-nitroso allophanate/]
anti-tumor activity: exhibit anti-tumor activity

CC1CCC(N(C(=O)O[C@H]2CC[C@@]3(C)C(=CC[C@@H]4[C@@H]3CC[C@]3(C)C(=O)CC[C@@H]43)C2)C(=O)N(CCCl)N=O)CC1 (stereo partly drawn) [dehydroepiandrosterone-3β-/N^2-(4-methylcyclohexyl)-N^4-(2-chloroethyl)-N^4-nitroso allophanate/]
anti-tumor activity: exhibit anti-tumor activity

CC(C)[C@@H](C)/C=C/[C@@H](C)[C@H]1CC[C@H]2C3=CC=C4C[C@@H](OC(=O)N(CCCl)N=O)CC[C@]4(C)[C@H]3CC[C@]12C [ergosterol-3β-N-(2-chloroethyl)-N-nitroso carbamate]
anti-tumor activity: exhibit anti-tumor activity

C[C@@]12C=CC[C@H]1[C@@H]1CCc3cc(OC(=O)N(CCCl)N=O)ccc3[C@H]1CC2 [estra-1,3,5(10),16-tetraen-3-ol,3-N-(2-chloroethyl)-N-nitroso carbamate]
anti-tumor activity: exhibit anti-tumor activity

CC(=O)O[C@H]1C(=O)C[C@H]2[C@@H]3CCc4cc(OC(=O)N(CCCl)N=O)ccc4[C@H]3CC[C@]12C [estra-1,3,5(10)-triene-3,17β-diol-16-one,17β-acetate-3-N-(2-chloroethyl)-N-nitroso carbamate]
anti-tumor activity: exhibit anti-tumor activity
